Earlier results, collected in patent EP1368044B1, “IMMUNOMODULATOR FOR THE MANAGEMENT OF HUMAN IMMUNODEFICIENCY VIRUS (HIV) DISEASE/INFECTION” (Bakulesh, Mafatlal Khamar, priority 2002, dated 2002).
Ends that are not written are not given here.

Test system: HIV
Conditions: along with interleukin-2

## Thymosin α1: a 28-aminoacid peptide (SDAAVDTSSEITTKDLKEKKEVVEEAEN; ends and bridges not checked; UniProt P06454 2-29, looked up)
  efficacy to improve CD4: no significant effect
